Experimental data as given in article PMC7930822, “Phase I Trial to Evaluate the Tolerance, Pharmacokinetics and Efficacy of the Broad-Spectrum ErbB Family Inhibitor Larotinib Mesylate in Patients With Advanced Solid Tumors” (Frontiers in Pharmacology, 2021).
Counter-ions that a name gives are not always drawn. Like-named read-outs stand apart in the source and are kept apart here.

Test: phase I plasma pharmacokinetics (non-compartmental, LC-MS/MS)
Format: in vivo, human
Conditions: for AUC(0-t) / AUC(0-inf) / Cmax / half-life / Tmax / Vd/F: human, plasma, po
Procedure: This was a phase I, single-center, open-label, dose-escalation study conducted at First Hospital of Jilin University, China (registration no.: ChiCTR-OPC-15007153 registered at http://www.chictr.org.cn). Larotinib mesylate hard capsules were produced and supplied by Sunshine Lake Pharma Co., Ltd (Guangdong Province, China) in different unit doses of […] under GMP condition. Seven dose levels were designed in the study: 50, 100, 150, 220, 300, 350, and 400 mg with administration stages labeled cycle 0, cycle 1, and subsequent treatment cycles. Patients received an oral single dose of larotinib mesylate after fasting during a 6-days cycle 0 to evaluate the tolerance and pharmacokinetic characteristics. After cycle 0, larotinib mesylate was continuously administered once daily for 28 days in cycle 1, and the tolerance and pharmacokinetic characteristics of multiple doses were evaluated (Figure 2). The patients who […] disease control (complete response [CR], partial response [PR], or stable disease [SD]) at the end of cycle one were permitted to participate in the subsequent 28-days treatment cycles until progressive disease (PD) or intolerance was observed.
Blood samples (4 ml) for pharmacokinetic analyses were collected in tubes containing K2EDTA anticoagulant. Blood samples were centrifuged at 3,000 rpm for 10 min at 4°C and stored at –80°C until liquid chromatography-mass spectrophotometry (LC-MS/MS) analysis. Urine and fecal samples were collected only when patients were given the150-mg and 220-mg dose levels at sampling time intervals of 0–4, 4–8, 8–12, 12–24, 24–48, 48–72, 72–96 and 96–120 h in cycle 0.
Linear mixed effects model was used to explore the dose exposure relationships. Dose proportionality was concluded if the 95% confidence interval (CI) of the linear regression slope was completely contained within the decision interval (1 + ln (0.8)/ln (8)∼1 + ln (1.25)/ln (8)). For urine and fecal data, the accumulative excretion rates of larotinib and M5 were calculated.
Bioanalysis was performed at Frontage Company (Shanghai, China). Validated high-performance LC-MS/MS method was used to quantify the concentrations of larotinib and M5 in plasma, urine and feces samples. Protein precipitation was employed for plasma, urine and feces processing. Plasma larotinib and M5 concentrations were determined using appropriate calibration curves obtained from standards in the range of 0.5–1,000 ng/ml. The interassay precision of the analysis method were 4.2–5.4% for larotinib and 3.9–4.3% for M5. The interassay accuracy of the analysis method were 100.4–103.4% for larotinib and 102.2–102.9% for M5, respectively.
Statistical analyses were performed using SAS software, version 9.2 (SAS Institute Inc., United States). Descriptive statistics were used to summarize continuous variables as cases, means with standard deviations (SDs), medians, quartiles, maximums and minimums. For categorical variables, frequencies and percentages were used. A linear mixed effects model, relating log-transformed Cmax and AUC parameters to log-transformed dose, was used to investigate dose proportionality.

Compound: COc1cc2ncnc(Nc3ccc(F)c(Cl)c3)c2cc1OCCCN1C[C@@H]2OCCO[C@@H]2C1 [larotinib mesylate]
- linearity of pharmacokinetics (50–400 mg): No clear linear pharmacokinetic characteristic
- time to steady state (continuous once daily administration): 8 days
- AUC(0-t) (50 mg, multiple oral administration, 50 mg larotinib mesylate, steady state, read-out: AUC0-t,ss, mean (min–max)): 3570 ng·h/mL
- AUC(0-inf) (50 mg, multiple oral administration, 50 mg larotinib mesylate, steady state, read-out: AUC0-∞,ss, mean (min–max)): 4920 ng·h/mL
- Cmax (50 mg, multiple oral administration, 50 mg larotinib mesylate, steady state, read-out: Cmax,ss, mean (min–max)): 67.5 ng/mL
- half-life (50 mg, multiple oral administration, 50 mg larotinib mesylate, steady state, read-out: T1/2,ss, mean (min–max) (converted)): 61.2 h
- Tmax (50 mg, multiple oral administration, 50 mg larotinib mesylate, steady state, read-out: Tmax,ss, median (min–max)): 5 h
- Vd/F (50 mg, multiple oral administration, 50 mg larotinib mesylate, steady state, read-out: Vz/F,ss, mean (min–max)): 921 L
- AUC(0-t) (50 mg, single oral administration, 50 mg larotinib mesylate, read-out: AUC0-24, mean (min–max)): 245 ng·h/mL
- AUC(0-t) (50 mg, single oral administration, 50 mg larotinib mesylate, read-out: AUC0-t, mean (min–max)): 635 ng·h/mL
- AUC(0-inf) (50 mg, single oral administration, 50 mg larotinib mesylate, read-out: AUC0-∞, mean (min–max)): 817 ng·h/mL
- Cmax (50 mg, single oral administration, 50 mg larotinib mesylate, read-out: Cmax, mean (min–max)): 17.4 ng/mL
- half-life (50 mg, single oral administration, 50 mg larotinib mesylate, read-out: T1/2, mean (min–max) (converted)): 56.7 h
- Tmax (50 mg, single oral administration, 50 mg larotinib mesylate, read-out: Tmax, median (min–max)): 6 h
- Vd/F (50 mg, single oral administration, 50 mg larotinib mesylate, read-out: Vz/F, mean (min–max)): 5070 L
- AUC(0-t) (100 mg, multiple oral administration, 100 mg larotinib mesylate, steady state, read-out: AUC0-t,ss, mean (min–max)): 4480 ng·h/mL
- AUC(0-inf) (100 mg, multiple oral administration, 100 mg larotinib mesylate, steady state, read-out: AUC0-∞,ss, mean (min–max)): 5200 ng·h/mL
- Cmax (100 mg, multiple oral administration, 100 mg larotinib mesylate, steady state, read-out: Cmax,ss, mean (min–max)): 131 ng/mL
- half-life (100 mg, multiple oral administration, 100 mg larotinib mesylate, steady state, read-out: T1/2,ss, mean (min–max) (converted)): 44.8 h
- Tmax (100 mg, multiple oral administration, 100 mg larotinib mesylate, steady state, read-out: Tmax,ss, median (min–max)): 5 h
- Vd/F (100 mg, multiple oral administration, 100 mg larotinib mesylate, steady state, read-out: Vz/F,ss, mean (min–max)): 1400 L
- AUC(0-t) (100 mg, single oral administration, 100 mg larotinib mesylate, read-out: AUC0-24, mean (min–max)): 653 ng·h/mL
- AUC(0-t) (100 mg, single oral administration, 100 mg larotinib mesylate, read-out: AUC0-t, mean (min–max)): 1240 ng·h/mL
- AUC(0-inf) (100 mg, single oral administration, 100 mg larotinib mesylate, read-out: AUC0-∞, mean (min–max)): 1390 ng·h/mL
- Cmax (100 mg, single oral administration, 100 mg larotinib mesylate, read-out: Cmax, mean (min–max)): 64.1 ng/mL
- half-life (100 mg, single oral administration, 100 mg larotinib mesylate, read-out: T1/2, mean (min–max) (converted)): 43.9 h
- Tmax (100 mg, single oral administration, 100 mg larotinib mesylate, read-out: Tmax, median (min–max)): 5 h
- Vd/F (100 mg, single oral administration, 100 mg larotinib mesylate, read-out: Vz/F, mean (min–max)): 4580 L
- AUC(0-t) (150 mg, multiple oral administration, 150 mg larotinib mesylate, steady state, read-out: AUC0-t,ss, mean (min–max)): 18200 ng·h/mL
- AUC(0-inf) (150 mg, multiple oral administration, 150 mg larotinib mesylate, steady state, read-out: AUC0-∞,ss, mean (min–max)): 24600 ng·h/mL
- Cmax (150 mg, multiple oral administration, 150 mg larotinib mesylate, steady state, read-out: Cmax,ss, mean (min–max)): 371 ng/mL
- half-life (150 mg, multiple oral administration, 150 mg larotinib mesylate, steady state, read-out: T1/2,ss, mean (min–max) (converted)): 61.2 h
- Tmax (150 mg, multiple oral administration, 150 mg larotinib mesylate, steady state, read-out: Tmax,ss, median (min–max)): 5 h
- Vd/F (150 mg, multiple oral administration, 150 mg larotinib mesylate, steady state, read-out: Vz/F,ss, mean (min–max)): 564 L
- AUC(0-t) (150 mg, single oral administration, 150 mg larotinib mesylate, read-out: AUC0-24, mean (min–max)): 1990 ng·h/mL
- AUC(0-t) (150 mg, single oral administration, 150 mg larotinib mesylate, read-out: AUC0-t, mean (min–max)): 4780 ng·h/mL
- AUC(0-inf) (150 mg, single oral administration, 150 mg larotinib mesylate, read-out: AUC0-∞, mean (min–max)): 5660 ng·h/mL
- Cmax (150 mg, single oral administration, 150 mg larotinib mesylate, read-out: Cmax, mean (min–max)): 150 ng/mL
- half-life (150 mg, single oral administration, 150 mg larotinib mesylate, read-out: T1/2, mean (min–max) (converted)): 39.3 h
- Tmax (150 mg, single oral administration, 150 mg larotinib mesylate, read-out: Tmax, median (min–max)): 5 h
- Vd/F (150 mg, single oral administration, 150 mg larotinib mesylate, read-out: Vz/F, mean (min–max)): 1650 L
- AUC(0-t) (220 mg, multiple oral administration, 220 mg larotinib mesylate, steady state, read-out: AUC0-t,ss, mean (min–max)): 30200 ng·h/mL
- AUC(0-inf) (220 mg, multiple oral administration, 220 mg larotinib mesylate, steady state, read-out: AUC0-∞,ss, mean (min–max)): 43600 ng·h/mL
- Cmax (220 mg, multiple oral administration, 220 mg larotinib mesylate, steady state, read-out: Cmax,ss, mean (min–max)): 553 ng/mL
- half-life (220 mg, multiple oral administration, 220 mg larotinib mesylate, steady state, read-out: T1/2,ss, mean (min–max) (converted)): 75.7 h
- Tmax (220 mg, multiple oral administration, 220 mg larotinib mesylate, steady state, read-out: Tmax,ss, median (min–max)): 6 h
- Vd/F (220 mg, multiple oral administration, 220 mg larotinib mesylate, steady state, read-out: Vz/F,ss, mean (min–max)): 553 L
- AUC(0-t) (220 mg, single oral administration, 220 mg larotinib mesylate, read-out: AUC0-24, mean (min–max)): 3100 ng·h/mL
- AUC(0-t) (220 mg, single oral administration, 220 mg larotinib mesylate, read-out: AUC0-t, mean (min–max)): 6360 ng·h/mL
- AUC(0-inf) (220 mg, single oral administration, 220 mg larotinib mesylate, read-out: AUC0-∞, mean (min–max)): 8090 ng·h/mL
- Cmax (220 mg, single oral administration, 220 mg larotinib mesylate, read-out: Cmax, mean (min–max)): 278 ng/mL
- half-life (220 mg, single oral administration, 220 mg larotinib mesylate, read-out: T1/2, mean (min–max) (converted)): 68.2 h
- Tmax (220 mg, single oral administration, 220 mg larotinib mesylate, read-out: Tmax, median (min–max)): 5 h
- Vd/F (220 mg, single oral administration, 220 mg larotinib mesylate, read-out: Vz/F, mean (min–max)): 2720 L
- AUC(0-t) (300 mg, multiple oral administration, 300 mg larotinib mesylate, steady state, read-out: AUC0-t,ss, mean (min–max)): 17900 ng·h/mL
- AUC(0-inf) (300 mg, multiple oral administration, 300 mg larotinib mesylate, steady state, read-out: AUC0-∞,ss, mean (min–max)): 22600 ng·h/mL
- Cmax (300 mg, multiple oral administration, 300 mg larotinib mesylate, steady state, read-out: Cmax,ss, mean (min–max)): 438 ng/mL
- half-life (300 mg, multiple oral administration, 300 mg larotinib mesylate, steady state, read-out: T1/2,ss, mean (min–max) (converted)): 54.3 h
